Test [1] has as its target Peptidyl-prolyl cis-trans isomerase FKBP1A (Homo sapiens, UniProt P62942). As to the kind of experiment: Binding affinity to FKBP12 (unknown origin) by competitive fluorescence polarization assay. For orientation: Fluorescence polarisation rises when a labelled molecule tumbles more slowly, as on binding a larger partner.
Test [2] deals with T1, Peptidyl-prolyl cis-trans isomerase FKBP4 (Homo sapiens, UniProt Q02790).
T1 sequence (Q02790 whole entry): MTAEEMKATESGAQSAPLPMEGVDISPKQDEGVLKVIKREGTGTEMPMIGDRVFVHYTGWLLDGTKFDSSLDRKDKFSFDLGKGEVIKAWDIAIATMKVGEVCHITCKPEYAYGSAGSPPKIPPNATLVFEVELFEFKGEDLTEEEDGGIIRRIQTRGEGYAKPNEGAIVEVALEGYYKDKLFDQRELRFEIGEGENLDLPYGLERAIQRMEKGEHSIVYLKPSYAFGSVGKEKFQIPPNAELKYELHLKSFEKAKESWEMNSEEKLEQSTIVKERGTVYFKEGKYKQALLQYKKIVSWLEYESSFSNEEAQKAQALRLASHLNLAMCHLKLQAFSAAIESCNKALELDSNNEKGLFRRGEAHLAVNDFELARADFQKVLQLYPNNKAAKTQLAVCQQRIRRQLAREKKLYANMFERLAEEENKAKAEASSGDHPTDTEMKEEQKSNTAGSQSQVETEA
As to the kind of experiment: Binding affinity to FKBP52 (unknown origin) by competitive fluorescence polarization assay.

The target of test [3] is T2, Peptidyl-prolyl cis-trans isomerase FKBP5 (Homo sapiens, UniProt Q13451).
T2 sequence (Q13451 whole entry): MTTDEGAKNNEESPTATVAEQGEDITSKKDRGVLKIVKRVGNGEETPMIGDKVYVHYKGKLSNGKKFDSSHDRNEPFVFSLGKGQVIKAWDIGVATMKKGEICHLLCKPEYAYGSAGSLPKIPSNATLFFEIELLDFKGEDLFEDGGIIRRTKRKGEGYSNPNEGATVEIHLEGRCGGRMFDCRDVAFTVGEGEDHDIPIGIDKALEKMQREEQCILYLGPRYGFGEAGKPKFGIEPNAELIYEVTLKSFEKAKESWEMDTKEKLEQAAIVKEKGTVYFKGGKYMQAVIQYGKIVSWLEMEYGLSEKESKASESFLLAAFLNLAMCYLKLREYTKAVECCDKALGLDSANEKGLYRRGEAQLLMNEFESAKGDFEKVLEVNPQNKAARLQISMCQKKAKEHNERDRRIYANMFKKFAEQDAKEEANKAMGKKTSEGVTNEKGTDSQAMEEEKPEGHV

Broadly, the Ki is the equilibrium dissociation constant of an inhibitor or competing ligand from its target.

Some results are limits rather than exact numbers.

Sequence of Peptidyl-prolyl cis-trans isomerase FKBP1A (P62942 whole entry): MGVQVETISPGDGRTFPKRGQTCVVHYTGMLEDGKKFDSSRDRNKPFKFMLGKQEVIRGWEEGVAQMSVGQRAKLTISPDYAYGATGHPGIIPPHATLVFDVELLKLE

Turning to `COc1ccc(CC[C@@H](OC(=O)[C@@H]2CCCCN2C(=O)[C@H](c2cc(OC)c(OC)c(OC)c2)C2CCCCC2)c2cccc(OCC(=O)O)c2)cc1OC`, the Ki was 90 nM in test [1], over 50000 nM in test [2] and 4 nM in test [3].

On to `COc1cccc([C@@H](C(=O)N2CCCC[C@H]2C(=O)O[C@H](CCc2ccc(OC)c(OC)c2)c2cccc(OCC(=O)O)c2)C2CCCCC2)c1`, for which the Ki was 1200 nM in test [1], over 100000 nM in test [2] and 160 nM in test [3].

In the case of `COc1cc(OC)cc([C@@H](C(=O)N2CCCC[C@H]2C(=O)O[C@H](CCc2ccc(OC)c(OC)c2)c2cccc(OCC(=O)O)c2)C2CCCCC2)c1`, the Ki in test [1] is 600 nM; in test [2] it was over 50000 nM; in test [3], 110 nM.

As to `COc1ccc(CC[C@@H](OC(=O)[C@@H]2CCCCN2C(=O)CC2CCCCC2)c2cccc(OCC(=O)O)c2)cc1OC`, the results for the Ki in test [1] and in test [2] were 300 nM and 9700 nM, respectively.

The record behind these values is ChEMBL document CHEMBL3621038, “Structure-Affinity Relationship Analysis of Selective FKBP51 Ligands” (J Med Chem, 2015).
